System: BSR cells, Bluetongue virus CPE, ATP luminescence, 72 h
Experiment: antiviral protection against BTV-induced cell death – arbovirus, BSR cells, confirmation (AID 1250)

SMILES | IC50 [µM]
CC1(c2ccc([N+](=O)[O-])cc2)CC(C)(C)N(C(=O)c2ccccc2)c2ccccc21 (configuration not stated) | 9.68
CCc1cc(C(=O)O)c(NC(=O)/C=C/c2ccc(OC)c(OC)c2)s1 | 1.68
COc1ccc(C2C=C(c3ccc(C)cc3)Nc3ncnn32)cc1 (configuration not stated) | 13
O=c1oc(-c2cc3ccccc3o2)nc2sc3c(c12)CCCC3 | 4.59
Cc1cc(C)c2cc(CN(Cc3cccnc3)C(=O)c3ccc(F)cc3)c(Cl)nc2c1 | 0.416
Oc1ccc(Br)cc1-c1cc(-c2ccc(Cl)cc2)n[nH]1 | 17.5
COc1cc([N+](=O)[O-])ccc1NC(=O)CC1SC(=Nc2ccc(F)cc2)N(CCC2=CCCCC2)C1=O (configuration not stated) | 0.108
COc1ccc(NC(=O)c2cc3cccc(OC)c3oc2=Nc2ccc(C(=O)O)cc2)cc1OC | 13.3
CCOc1cc(/C=C(/C#N)c2ccc(Cl)cc2)cc(Cl)c1OCC(=O)O | 20.6
O=C(/C=C/c1ccco1)Nc1sc2c(c1C(=O)O)CCC2 | 17
Cc1nc(Nc2ccc3c(c2)OCCO3)c2nnn(Cc3ccccc3Cl)c2n1 | 20.8
COc1ccc(-c2csc(NC(=O)C3=NN(c4ccccc4)C(=O)CC3)n2)cc1 | 20.7
COC(=O)c1ccccc1NC(=O)CN1CCC(NC(=O)c2ccccc2C)CC1 | 1.45
CC(C)Sc1nsc2nc(=O)c(/C=C3\C=Nc4ccccc43)c(N)n12 | 10.3
Oc1ccc(Nc2nc(NCC3CCCO3)c3ccccc3n2)cc1 (configuration not stated) | 20.8
CC(C)COc1ccc(C(=O)Nc2sc3c(c2C(=O)O)CC(C)(C)OC3)cc1 | 13.1
O=c1oc(/C=C/c2ccccc2)nc2sc3c(c12)CCC3 | 8.92
N#Cc1sc2nc(-c3cccs3)cc(-c3ccc(F)cc3)c2c1N | 2.28
COc1cc(C(=O)Nc2nc(-c3ccc(F)cc3)cs2)ccc1OCC(=O)N1CCOCC1 | 10.6
O=C(Nc1ccccc1)Nc1snnc1C(=O)Nc1cccc(O)c1 | 19
COc1ccc(NC(=O)c2c[nH]n3c(=O)cc(C4CCN(C(=O)OC(C)(C)C)CC4)nc23)cc1Cl | 12.2
Nc1nc(-c2ccccc2)c(-c2ccc([N+](=O)[O-])cc2)s1 | 5.6
CC(=O)Nc1cccc(Oc2ncnc3scc(-c4ccccc4)c23)c1 | 15.6
CC(C(=O)Nc1ccccc1-c1ccccc1)N1CCN(S(=O)(=O)c2ccccc2)CC1 (configuration not stated) | 1.4
CC(C)Cc1csc(NC(=O)c2ccccc2Cl)c1C(=O)O | 20.6
CC(C)c1ccc(-c2csc(NC(=O)c3cccs3)c2C(=O)O)cc1 | 11.1
Cc1ccc(-c2csc(NC(=O)c3cccs3)n2)cc1 | 5

Reference: PubChem BioAssay AID1250 (SRMLSC, 2008)
